Drawing on US9120785B2, “Pyridyl aminopyridines as Syk inhibitors” (Merck Sharp & Dohme Corp., priority 2011, dated 2015), this text covers IC50 for 22 compounds.

Where only a bound is given, the exact number is not on record here.

One assay concerns the target recombinant human GST-Syk (Homo sapiens (Human), UniProt P43405). Put plainly: Homogeneous Time-Resolved Fluorescence (HTRF) assay for the recombinant human Syk enzyme. It is filed as biochemical. To be noted: recombinant human GST-Syk 5 pM, ATP 25 μM, 10-dose titration; read-out: rhSyk (nM) IC50. On the procedure:
Homogeneous Time-Resolved Fluorescence (HTRF) Assay for the Recombinant Human Syk Enzyme:
A recombinant GST-hSyk fusion protein was used to measure potency of compounds to inhibit human Syk activity. The recombinant human GST-Syk ([…] #08-176) (5 pM final concentration) was incubated with various concentrations of the inhibitor diluted in DMSO (0.1% final concentration) for 10 minutes at room temperature in 15 mM Tris-HCl (pH 7.5), 0.01% tween 20, 2 mM DTT in 384 well plate format. To initiate the reaction the biotinylated substrate peptide (250 nM final concentration) that contains the phosphorylation site for Syk was added with magnesium (5 mM final concentration) and ATP (25 μM final concentration). Final volume of the reaction was 10 μL. Phosphorylation of the peptide was allowed to proceed for 45 minutes at room temperature. To quench the reaction and detect the phosphorylated product, 2 nM of a Europium-anti-phosphotyrosine antibody (Perkin Elmer #AD0161) and 70 nM SA-APC (Perkin-Elmer #CR130-100) were added together in 15 mM Tris pH 7.5, 40 mM EDTA, 0.01% tween 20. Final volume of the quenching solution was 10 μL. The resulting HTRF signal was measured after 30 minutes on an EnVision (Perkin-Elmer) reader using a time-resolved fluorescence protocol.
On to `Cc1cc(Nc2cc(C(F)F)ccn2)nc(-c2cnc(C(C)(O)[C@H]3CC[C@H](C(=O)O)CC3)s2)c1` (single isomer, unassigned) [Example 14-4, trans-4-{1-[5-(6-{[4-(difluoromethyl)pyridin-2-yl]amino}-4-methylpyridin-2-yl)-1,3-thiazol-2-yl]-1-hydroxyethyl}cyclohexanecarboxylic acid], for which the IC50 was found to be 0.5 nM.
Turning to `Cc1cc(Nc2cc(C(F)(F)F)ccn2)nc(-c2cnc(C(O)[C@H]3CC[C@H](C(=O)O)CC3)s2)c1` (single isomer, unassigned) [Example 14-28, trans-4-{hydroxy[5-(4-methyl-6-{[4-(trifluoromethyl)pyridin-2-yl]amino}pyridin-2-yl)-1,3-thiazol-2-yl]methyl}cyclohexanecarboxylic acid], the half-inhibitory concentration (IC50) is 1.1 nM.
The same measure, in the same setting: the value for `CCCCOC(=O)[C@H]1CC[C@H]([C@@](C)(O)c2ncc(-c3cc(C)cc(Nc4cc(C)c(F)cn4)n3)s2)CC1` (single isomer, unassigned) [Example 9, Enantiomer 1, butyl trans-4-[1-(5-{6-[(5-fluoro-4-methylpyridine-2-yl)amino]-4-methylpyridine-2-yl}-1,3-thiazol-2-yl)-1-hydroxyethyl]cyclohexanecarboxylate] was 278 nM.

Staying with this assay, now noted: recombinant human GST-Syk 5 pM, ATP 25 μM; class symbols; read-out: rhSyk activity (IC50).
As for `Cc1cc(Nc2cc(C(F)(F)F)ccn2)nc(-c2cnc(C(C)(O)C3CCC(C(=O)O)C(C)C3)s2)c1` (single isomer, unassigned) [Example 15-10, 4-{1-hydroxy-1-[5-(4-methyl-6-{[4-(trifluoromethyl)pyridin-2-yl]amino}pyridin-2-yl)-1,3-thiazol-2-yl]ethyl}-2-methylcyclohexanecarboxylic acid], the half-maximal inhibitory concentration (IC50) was at most 100 nM.
`Cc1cc(Nc2cc(C(F)(F)F)ccn2)nc(-c2cnc(C(C)(O)C3CCC(C(=O)O)C(C)C3)s2)c1` (single isomer, unassigned) [Example 15-8, 4-{1-hydroxy-1-[5-(4-methyl-6-{[4-(trifluoromethyl)pyridin-2-yl]amino}pyridin-2-yl)-1,3-thiazol-2-yl]ethyl}-2-methylcyclohexanecarboxylic acid]: the IC50 is at most 100 nM.
Still for that read-out and setting: in the case of `Cc1cc(Nc2cc(C(F)(F)F)ccn2)nc(-c2cnc(C(C)(O)C3CCC(C(=O)O)C(C)C3)s2)c1` (single isomer, unassigned) [Example 15-3, 4-{1-hydroxy-1-[5-(4-methyl-6-{[4-(trifluoromethyl)pyridin-2-yl]amino}pyridin-2-yl)-1,3-thiazol-2-yl]ethyl}-2-methylcyclohexanecarboxylic acid] it was at most 100 nM.
On the same count and under the same terms, in the case of `Cc1ccnc(Nc2cc(C)cc(-c3cnc(C(C)(O)[C@H]4CC[C@H](C(=O)O)C(C)(C)C4)s3)n2)c1` (stereo partly drawn) [Example 14-33, (1S,4S)-4-[1-hydroxy-1-(5-{4-methyl-6-[(4-methylpyridin-2-yl)amino]pyridin-2-yl}-1,3-thiazol-2-yl)ethyl]-2,2-dimethylcyclohexanecarboxylic acid] it was at most 100 nM; in that of `Cc1cc(Nc2cc(C(F)(F)F)ccn2)nc(-c2cnc(C(C)(O)C3CCC(C(=O)O)C(C)C3)s2)c1` (single isomer, unassigned) [Example 15-5, 4-{1-hydroxy-1-[5-(4-methyl-6-{[4-(trifluoromethyl)pyridin-2-yl]amino}pyridin-2-yl)-1,3-thiazol-2-yl]ethyl}-2-methylcyclohexanecarboxylic acid], at most 100 nM.
Same read-out and setting: the value for `Cc1cc(Nc2cc(C(F)(F)F)ccn2)nc(-c2cnc(C(O)(C3CC3)[C@H]3CC[C@H](C(=O)O)CC3)s2)c1` (single isomer, unassigned) [Example 14-18, trans-4-{cyclopropyl(hydroxy)[5-(4-methyl-6-{[4-(trifluoromethyl)pyridin-2-yl]amino}pyridin-2-yl)-1,3-thiazol-2-yl]methyl}cyclohexanecarboxylic acid] was at most 100 nM; that for `COc1ccnc(Nc2cc(C)cc(-c3cnc(C(C)(O)[C@H]4CC[C@H](C(=O)O)C(C)(C)C4)s3)n2)c1` (stereo partly drawn) [Example 14-36, (1S,4S)-4-[1-hydroxy-1-(5-{6-[(4-methoxypyridin-2-yl)amino]-4-methylpyridin-2-yl}-1,3-thiazol-2-yl)ethyl]-2,2-dimethylcyclohexanecarboxylic acid] was at most 100 nM; that for `Cc1cc(Nc2cc(C(F)F)ccn2)nc(-c2cnc(C(C)(O)[C@H]3CC[C@H](C(=O)O)CC3)s2)c1` (single isomer, unassigned) [Example 14-4, trans-4-{1-[5-(6-{[4-(difluoromethyl)pyridin-2-yl]amino}-4-methylpyridin-2-yl)-1,3-thiazol-2-yl]-1-hydroxyethyl}cyclohexanecarboxylic acid] was at most 100 nM.
On to `Cc1ccnc(Nc2cc(C)cc(-c3cnc(C(C)(O)[C@H]4CC[C@H](C(=O)O)CC4)s3)n2)c1` (relative stereo) [Example 14-1, trans-4-[1-hydroxy-1-(5-{4-methyl-6-[(4-methylpyridin-2-yl)amino]pyridin-2-yl}-1,3-thiazol-2-yl)ethyl]cyclohexanecarboxylic acid], for which the half-maximal inhibitory concentration (IC50) is at most 100 nM.
Still for that read-out and setting: in the case of `Cc1cc(Nc2cc(C(F)(F)F)ccn2)nc(-c2cnc(C(C)(O)[C@H]3CC[C@H](C(=O)O)C(C)(C)C3)s2)c1` (stereo partly drawn) [Example 14-32, (1S,4S)-4-{1-hydroxy-1-[5-(4-methyl-6-{[4-(trifluoromethyl)pyridin-2-yl]amino}pyridin-2-yl)-1,3-thiazol-2-yl]ethyl}-2,2-dimethylcyclohexanecarboxylic acid] it was at most 100 nM; in that of `Cc1cc(Nc2cc(C(F)(F)F)ccn2)nc(-c2cnc(C(C)(O)C3CCC(C(=O)O)C(C)C3)s2)c1` (stereo not shown) [Example 15-15, 4-{1-hydroxy-1-[5-(4-methyl-6-{[4-(trifluoromethyl)pyridin-2-yl]amino}pyridin-2-yl)-1,3-thiazol-2-yl]ethyl}-2-methylcyclohexanecarboxylic acid], at most 100 nM; in that of `CC1(C)C[C@@H](C(C)(O)c2ncc(-c3cccc(Nc4cc(C(F)(F)F)ccn4)n3)s2)CC[C@@H]1C(=O)O` (stereo partly drawn) [Example 14-44, (1S,4S)-4-{1-hydroxy-1-[5-(6-{[4-(trifluoromethyl)pyridin-2-yl]amino}pyridin-2-yl)-1,3-thiazol-2-yl]ethyl}-2,2-dimethylcyclohexanecarboxylic acid], at most 100 nM.
On the same count and under the same terms, in the case of `Cc1cc(Nc2cc(C(F)(F)F)ccn2)nc(-c2cnc(C(C)(O)C3CCC(C(=O)O)C(C)C3)s2)c1` (single isomer, unassigned) [Example 15-12, 4-{1-hydroxy-1-[5-(4-methyl-6-{[4-(trifluoromethyl)pyridin-2-yl]amino}pyridin-2-yl)-1,3-thiazol-2-yl]ethyl}-2-methylcyclohexanecarboxylic acid] it was at most 100 nM; in that of `CCCCOC(=O)[C@H]1CC[C@H](C(C)(O)c2ncc(-c3cc(C)cc(Nc4cc(C(F)(F)F)ccn4)n3)s2)CC1` (single isomer, unassigned) [Example 14, Step 1, butyl trans-4-{(1R or 1S)-1-hydroxy-1-[5-(4-methyl-6-{[4-(trifluoromethyl)pyridin-2-yl]amino}pyridin-2-yl)-1,3-thiazol-2-yl]ethyl}cyclohexanecarboxylate], 100 to 1000 nM.
`Cc1cc(Nc2cc(C(F)(F)F)ccn2)nc(-c2cnc(C(C)(O)C3CCC(C(=O)O)C(C)C3)s2)c1` (stereo not shown) [Example 15-16, 4-{1-hydroxy-1-[5-(4-methyl-6-{[4-(trifluoromethyl)pyridin-2-yl]amino}pyridin-2-yl)-1,3-thiazol-2-yl]ethyl}-2-methylcyclohexanecarboxylic acid]: the IC50 is at most 100 nM.
Consider `CCCCOC(=O)[C@H]1CC[C@H]([C@@](C)(O)c2ncc(-c3cc(C)cc(Nc4cc(C)c(F)cn4)n3)s2)CC1` (single isomer, unassigned) [Example 9, Enantiomer 2, butyl trans-4-[1-(5-{6-[(5-fluoro-4-methylpyridine-2-yl)amino]-4-methylpyridine-2-yl}-1,3-thiazol-2-yl)-1-hydroxyethyl]cyclohexanecarboxylate], for which the concentration for half-maximal inhibition (IC50) is 100 to 1000 nM.
Still for that read-out and setting: the value for `Cc1cc(Nc2cc(C(F)(F)F)ccn2)nc(-c2cnc(C(O)[C@H]3CC[C@H](C(=O)O)CC3)s2)c1` (single isomer, unassigned) [Example 14-28, trans-4-{hydroxy[5-(4-methyl-6-{[4-(trifluoromethyl)pyridin-2-yl]amino}pyridin-2-yl)-1,3-thiazol-2-yl]methyl}cyclohexanecarboxylic acid] was at most 100 nM; that for `CCCCOC(=O)[C@H]1CC[C@H]([C@@](C)(O)c2ncc(-c3cc(C)cc(Nc4cc(C)c(F)cn4)n3)s2)CC1` (single isomer, unassigned) [Example 9, Enantiomer 1, butyl trans-4-[1-(5-{6-[(5-fluoro-4-methylpyridine-2-yl)amino]-4-methylpyridine-2-yl}-1,3-thiazol-2-yl)-1-hydroxyethyl]cyclohexanecarboxylate] was 100 to 1000 nM; that for `Cc1cc(Nc2cc(C(F)(F)F)ccn2)nc(-c2cnc(C(C)(O)C3CCC(C(=O)O)C(C)C3)s2)c1` (single isomer, unassigned) [Example 15-6, 4-{1-hydroxy-1-[5-(4-methyl-6-{[4-(trifluoromethyl)pyridin-2-yl]amino}pyridin-2-yl)-1,3-thiazol-2-yl]ethyl}-2-methylcyclohexanecarboxylic acid] was at most 100 nM.
On the same count and under the same terms, in the case of `Cc1cc(Nc2cc(C(F)(F)F)ccn2)nc(-c2cnc(C(C)(O)C3CCN(C(N)=O)C3)s2)c1` (stereo not shown) [Example 13, 3-{1-Hydroxy-1-[5-(4-methyl-6-{[4-(trifluoromethyl)pyridin-2-yl]amino}pyridin-2-yl)-1,3-thiazol-2-yl]ethyl}pyrrolidine-1-carboxamide] it was at most 100 nM; in that of `Cc1ccnc(Nc2cc(C)cc(-c3cnc(C(C)(O)[C@H]4CC[C@H](C(=O)O)C(C)(C)C4)s3)n2)c1` (stereo partly drawn) [Example 14-34, (1S,4S)-4-[1-hydroxy-1-(5-{4-methyl-6-[(4-methylpyridin-2-yl)amino]pyridin-2-yl}-1,3-thiazol-2-yl)ethyl]-2,2-dimethylcyclohexanecarboxylic acid], at most 100 nM.
The same measure, in the same setting: in the case of `CCC(O)(c1ncc(-c2cc(C)cc(Nc3cc(C4CC4)ccn3)n2)s1)[C@H]1CC[C@H](C(=O)O)CC1` (mixture of isomers) [Example 1, racemic, trans-4-[1-(5-{6-[(4-Cyclopropylpyridin-2-yl)amino]-4-methylpyridin-2-yl}-1,3-thiazol-2-yl)-1-hydroxypropyl]cyclohexanecarboxylic acid] it was at most 100 nM.
